Data published in PubChem BioAssay AID330 (DTP/NCI, 2004).
“And” between values parts separate entries of the source, which are not always exact repeats. Equal values may be shown once. Inconclusive results and toxic doses are left out. How the source made its calls: active means survival T/C of 150% or more; inactive means T/C below 125% in these data.

Tested on: P388 leukemia ip, CD2F1 mice, survival T/C
Assay: NCI In Vivo Anticancer Drug Screen. Data for tumor model P388 Leukemia (intraperitoneal) in CD2F1 (CDF1) mice
Settings: endpoint: median survival time, higher = longer survival
Outline: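 Mice carrying the transplanted tumor received test compound or vehicle. Survival was recorded in each group, and the value is the treated-group measurement divided by that of the vehicle-treated control group.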

[1] = dose: 50.0 mg/kg/injection, schedule: Q01DX009 (ip), vehicle: saline with Tween-80
[2] = dose: 100.0 mg/kg/injection, schedule: Q01DX009 (ip), vehicle: saline with Tween-80
[3] = dose: 200.0 mg/kg/injection, schedule: Q01DX009 (ip), vehicle: saline with Tween-80
[4] = dose: 50.0 mg/kg/injection, schedule: Q01DX009 (ip), vehicle: Klucel (hydroxypropylcellulose) (HPC)
[5] = dose: 100.0 mg/kg/injection, schedule: Q01DX009 (ip), vehicle: Klucel (hydroxypropylcellulose) (HPC)

Measured: T/C

CN(C)c1ccc(/C=c2\[nH]c(=O)/c(=C\c3ccc(N(C)C)cc3)[nH]c2=O)cc1
inactive: dose: 12.5 mg/kg/injection, schedule: Q01DX001 (ip), vehicle: saline with Tween-80 97 % of control | dose: 25.0 mg/kg/injection, schedule: Q01DX001 (ip), vehicle: saline with Tween-80 99 % of control | dose: 50.0 mg/kg/injection, schedule: Q01DX001 (ip), vehicle: saline with Tween-80 99 % of control | [1] 98 % of control | dose: 100.0 mg/kg/injection, schedule: Q01DX001 (ip), vehicle: saline with Tween-80 99 % of control | [2] 90 % of control | [3] 87 % of control | dose: 400.0 mg/kg/injection, schedule: Q01DX009 (ip), vehicle: saline with Tween-80 90 % of control

COC1/C=C/OC2(C)Oc3c(C)c(O)c4c(O)c(c(/C=N/Nc5nc6c(N)ncnc6n5C5OC(CO)C(O)C5O)c(O)c4c3C2=O)NC(=O)C(C)=C/C=C/C(C)C(O)C(C)C(O)C(C)C(OC(C)=O)C1C (stereo unspecified)
inactive: [1] 104 % of control | [2] 99 % of control | [3] 113 % of control

CC(OC(=O)Nc1cccc2ccccc12)C(N)=O (stereo unspecified)
inactive: dose: 100.0 mg/kg/injection, schedule: Q04DX003 (ip), vehicle: Klucel (hydroxypropylcellulose) (HPC) 91 % of control | dose: 200.0 mg/kg/injection, schedule: Q04DX003 (ip), vehicle: Klucel (hydroxypropylcellulose) (HPC) 95 % of control | dose: 400.0 mg/kg/injection, schedule: Q04DX003 (ip), vehicle: Klucel (hydroxypropylcellulose) (HPC) 96 % of control

Cc1cc(Cl)nc(Cl)c1C#N
inactive: dose: 18.75 mg/kg/injection, schedule: Q04DX003 (ip), vehicle: saline 98 % of control | dose: 37.5 mg/kg/injection, schedule: Q04DX003 (ip), vehicle: saline 103 % of control | dose: 75.0 mg/kg/injection, schedule: Q04DX003 (ip), vehicle: saline 103 % of control | dose: 150.0 mg/kg/injection, schedule: Q04DX003 (ip), vehicle: saline 99 % of control

COc1ccc(N=C2C(=Nc3ccc(OC)cc3)N(S(=O)(=O)c3ccc(C)cc3)C(=S)N2c2ccccc2)cc1
inactive: dose: 50.0 mg/kg/injection, schedule: Q01DX005 (ip), vehicle: Klucel + Tween-80 100 % of control | dose: 100.0 mg/kg/injection, schedule: Q01DX005 (ip), vehicle: Klucel + Tween-80 98 % of control

Cc1ccc(S(=O)(=O)N=S(C)(C)=O)cc1
inactive: dose: 0.1 mg/kg/injection, schedule: Q01DX009 (ip), vehicle: saline with Tween-80 104 % of control | dose: 0.2 mg/kg/injection, schedule: Q01DX009 (ip), vehicle: saline with Tween-80 105 % of control and 108 % of control | dose: 0.39 mg/kg/injection, schedule: Q01DX009 (ip), vehicle: saline with Tween-80 99 % of control and 101 % of control | dose: 0.78 mg/kg/injection, schedule: Q01DX009 (ip), vehicle: saline with Tween-80 107 % of control | dose: 0.79 mg/kg/injection, schedule: Q01DX009 (ip), vehicle: saline with Tween-80 98 % of control | dose: 1.56 mg/kg/injection, schedule: Q01DX009 (ip), vehicle: saline with Tween-80 108 % of control and 120 % of control and 96 % of control | dose: 6.25 mg/kg/injection, schedule: Q01DX009 (ip), vehicle: saline with Tween-80 100 % of control and 105 % of control and 91 % of control | dose: 12.5 mg/kg/injection, schedule: Q01DX009 (ip), vehicle: saline with Tween-80 104 % of control and 88 % of control | dose: 25.0 mg/kg/injection, schedule: Q01DX009 (ip), vehicle: saline with Tween-80 97 % of control

Cc1c2oc3c(C)ccc(C(=O)NCCc4ccccc4)c3nc-2c(C(=O)NCCc2ccccc2)c(N)c1=O
inactive: dose: 50.0 mg/kg/injection, schedule: Q04DX003 (ip), vehicle: DMSO 92 % of control | dose: 100.0 mg/kg/injection, schedule: Q04DX003 (ip), vehicle: DMSO 91 % of control | dose: 200.0 mg/kg/injection, schedule: Q04DX003 (ip), vehicle: DMSO 90 % of control

O=c1c2c([nH]c3ccc4[nH]c5c(c(=O)c4c13)CCCC5)CCCC2
inactive: dose: 100.0 mg/kg/injection, schedule: Q04DX003 (ip), vehicle: saline with Tween-80 94 % of control | dose: 200.0 mg/kg/injection, schedule: Q04DX003 (ip), vehicle: saline with Tween-80 91 % of control | dose: 400.0 mg/kg/injection, schedule: Q04DX003 (ip), vehicle: saline with Tween-80 87 % of control

COc1cc(Br)c(C(C)(C)C#N)cc1OC
inactive: dose: 50.0 mg/kg/injection, schedule: Q01DX005 (ip), vehicle: Klucel (hydroxypropylcellulose) (HPC) 101 % of control | dose: 100.0 mg/kg/injection, schedule: Q01DX005 (ip), vehicle: Klucel (hydroxypropylcellulose) (HPC) 101 % of control | dose: 200.0 mg/kg/injection, schedule: Q01DX005 (ip), vehicle: Klucel (hydroxypropylcellulose) (HPC) 100 % of control

O=C(N/N=C/c1cc(Br)ccc1[O-])c1ccccc1O.O=C(N/N=C/c1cc(Br)ccc1[O-])c1ccccc1O.[Co+2]
inactive: dose: 100.0 mg/kg/injection, schedule: Q04DX002 (ip), vehicle: Klucel (hydroxypropylcellulose) (HPC) 90 % of control | dose: 200.0 mg/kg/injection, schedule: Q04DX002 (ip), vehicle: Klucel (hydroxypropylcellulose) (HPC) 90 % of control

O=S(=O)(Nc1cc2ccccc2cc1NS(=O)(=O)N1CCCCC1)N1CCCCC1
inactive: [4] 93 % of control | [5] 89 % of control

O=C1C=C(Cl)C(O)C1(Cl)Cl (stereo unspecified)
inactive: dose: 6.25 mg/kg/injection, schedule: Q01DX009 (ip), vehicle: saline 94 % of control | dose: 12.5 mg/kg/injection, schedule: Q01DX009 (ip), vehicle: saline 92 % of control

C=C1C(=O)O[C@@H]2[C@H]3C(C)=CC[C@@H](OC(=O)/C(C)=C/C)[C@]3(C)[C@H](O)C[C@@H]12
inactive: dose: 7.0 mg/kg/injection, schedule: Q01DX005 (ip), vehicle: Klucel (hydroxypropylcellulose) (HPC) 100 % of control | dose: 14.0 mg/kg/injection, schedule: Q01DX005 (ip), vehicle: Klucel (hydroxypropylcellulose) (HPC) 100 % of control | dose: 28.0 mg/kg/injection, schedule: Q01DX005 (ip), vehicle: Klucel (hydroxypropylcellulose) (HPC) 106 % of control | dose: 56.0 mg/kg/injection, schedule: Q01DX005 (ip), vehicle: Klucel (hydroxypropylcellulose) (HPC) 105 % of control

O=C(O)c1cc2ccccc2c2c1C(=O)c1ccccc1-2
inactive: [1] 90 % of control | [2] 95 % of control | [3] 91 % of control

CC(=O)Nc1nc(N(C)C)nc(N(C)C)n1
inactive: dose: 50.0 mg/kg/injection, schedule: Q04DX002 (ip), vehicle: saline 109 % of control | dose: 100.0 mg/kg/injection, schedule: Q04DX002 (ip), vehicle: saline 107 % of control | dose: 200.0 mg/kg/injection, schedule: Q04DX002 (ip), vehicle: saline 114 % of control

CCC(=O)c1ccc(OCC(O)COc2c3ccccc3nc3ccccc23)cc1 (stereo unspecified)
inactive: dose: 50.0 mg/kg/injection, schedule: Q01DX005 (ip), vehicle: saline with Tween-80 87 % of control | dose: 100.0 mg/kg/injection, schedule: Q01DX005 (ip), vehicle: saline with Tween-80 90 % of control | dose: 200.0 mg/kg/injection, schedule: Q01DX005 (ip), vehicle: saline with Tween-80 92 % of control

COc1cc(C=Nc2c[nH]c(=O)[nH]c2=O)ccc1O
inactive: dose: 50.0 mg/kg/injection, schedule: Q01DX009 (ip), vehicle: saline 93 % of control | dose: 100.0 mg/kg/injection, schedule: Q01DX009 (ip), vehicle: saline 96 % of control | dose: 200.0 mg/kg/injection, schedule: Q01DX009 (ip), vehicle: saline 98 % of control

CSC(=Nc1cccc(C)c1)NC#N
inactive: [4] 103 % of control | [5] 106 % of control | dose: 200.0 mg/kg/injection, schedule: Q01DX009 (ip), vehicle: Klucel (hydroxypropylcellulose) (HPC) 105 % of control

CSC(C=C1C=CN(CC(=O)c2ccccc2)C=C1)=C(C#N)C#N
inactive: dose: 25.0 mg/kg/injection, schedule: Q04DX002 (ip), vehicle: saline with Tween-80 97 % of control | dose: 50.0 mg/kg/injection, schedule: Q04DX002 (ip), vehicle: saline with Tween-80 102 % of control | dose: 100.0 mg/kg/injection, schedule: Q04DX002 (ip), vehicle: saline with Tween-80 99 % of control

O=CCC(O)C(O)C(O)CO (stereo unspecified)
inactive: dose: 150.0 mg/kg/injection, schedule: Q01DX009 (ip), vehicle: saline 107 % of control | dose: 300.0 mg/kg/injection, schedule: Q01DX009 (ip), vehicle: saline 100 % of control and 104 % of control and 121 % of control | dose: 600.0 mg/kg/injection, schedule: Q01DX009 (ip), vehicle: saline 107 % of control and 112 % of control and 121 % of control | dose: 1200.0 mg/kg/injection, schedule: Q01DX009 (ip), vehicle: saline 103 % of control | dose: 2400.0 mg/kg/injection, schedule: Q01DX009 (ip), vehicle: saline 110 % of control and 91 % of control
